# Reference: patent publication US8362070B2, “Application of puerarin in the preparation of P2X3 mediated drugs for pain/nervous system diseases” (Nanchang University, priority 2009, dated 2013)
# Legend:
# Assay type in all cases: in vivo, rat
# [1] = tested on: rats that suffer from superficial second degree foot burn; experiment: Mechanical hyperalgesia (mechanical withdrawal threshold) in rats with foot burn; settings: for mechanical withdrawal threshold (MWT) in comparison to group III (burn) / mechanical withdrawal threshold (MWT) after 72 hours or 96 hours: superficial second degree foot burn + drug; for mechanical withdrawal threshold (MWT) in comparison to group III (burn): p<0.01; for mechanical withdrawal threshold (MWT) after 72 hours or 96 hours: vs groups I, II, V p>0.05
# Excerpt: Male SD rats, 220-250 g, 60 rats were included, which were provided by the Department of Experimental Animals from the Medical College of Nanchang University, and the animals were divided into different groups at random. Group I was the group of sham burn in skin of feet; group II was the group of puerarin injection+first degree or superficial second degree burn in skin of feet; group III was the group of physiological saline+first degree or superficial second degree burn in skin of feet; group IV was the group of sham burn in skin of back; group V was the group of puerarin injection+first degree or superficial second degree burn in skin of back; group VI was the group of physiological saline+first degree or superficial second degree burn in skin of back. Puerarin injection was dissolved in physiological saline and the concentration was 50 mg/mL. vena caudalis injection of 4 mL/kg physiological saline was carried out for the rats in group III and […] 0.5 h before burn, and the injection was carried out once a day until the termination of the test; […], and the injection was carried out once a day until the termination of the test; skin of feet or back of the rats from group I and group IV (the sham burn group) were immersed in warm water of 37° C. for 8 seconds. After the rats were anesthetized by ether, their right posterior feet were immersed in hot water of 70° C. for 5 seconds or 8 seconds, then they were raised in separate cages after burn. The mechanical withdrawal threshold and the thermal withdrawal threshold in their right posterior feet were measured respectively before burn (Oh) and 1, 24, 48, 72, 96, 120, 144 hours after burn (the room temperature was maintained at 22±0.5° C.). BME-403 Von Frey fine thread was used to detect the mechanical withdrawal threshold (MWT). The rats were kept in transparent organic glass box (22×12×22 cm^3), and the bottom of the organic glass box was made of wire netting of 1×1 cm^2. The rats were raised in the laboratory after operations and they were kept in the organic glass box for accommodation for 15 min before the detection. The bending forces were 0.13, 0.20, 0.33, 0.60, 1.30, 3.60, 5.00, 7.30, 9.90, 20.1 g respectively. Each test was performed for ten times from the smallest bending force until the frequency of withdrawal was higher than 5/10, namely 50% reaction threshold (that was the value for inducing five reactions in ten tests). The biggest bending force was 20.1 g and bending forces≧20.1 g were recorded as 20.1 g. The interval between two stimulations was at least more than 15 seconds until the stimulation-induced reactions (such as licking feet and throwing legs) completely disappeared. BME-403 Von Frey fine thread was used to determine the mechanical withdrawal threshold (MWT). The rats were kept in transparent organic glass box (22×12×22 cm^3), and the bottom of the organic glass box was made of wire netting of 1×1 cm^2. The rats were raised in the laboratory after operations and they were kept in the organic glass box for accommodation for 15 minutes before the detection. The bending forces were 0.13, 0.20, 0.33, 0.60, 1.30, 3.60, 5.00, 7.30, 9.90, 20.1 g respectively, and bending forces≧20.1 g were recorded as 20.1 g. […]
# P2X3 protein = P2X3 protein expression in dorsal root ganglion of burn rats (band density normalized to β-actin); settings: n=3
# Procedure: SD rats (their body weights were between 200±20 g) were randomly divided into the group I (sham back burn), the group II (Puerarin, intraperitoneal injection), the group III (superficial second degree back burn), the group IV (superficial second degree back burn+puerarin), the group V (control) and the group VI (superficial second degree back burn+Indocin). The rats in the group IV (superficial second degree back burn+puerarin) were subjected to intraperitoneal injection of puerarin (100 mg/kg) everyday for continuous three days 30 minutes before burn and after burn. The rats in the group VI (superficial second degree back burn+Indocin) were subjected to intraperitoneal injection of idomethine (4 mg/kg/d) everyday for continuous three days 30 minutes before burn and after burn. Results: the optical density scanned values for the interested bands that were detected on X-ray film were read by using Alpha Imager 2200 image analysis software, and the scanned values of β-actin for different groups were used to normalize the expression level of P2X3 in corresponding groups.
# P2X3 receptor mRNA = experiment: In situ hybridization of P2X3 receptor mRNA in dorsal root ganglion of CCI rats; settings: L4/L5 DRG
# P2X3 mRNA [2] = experiment: In situ hybridization of P2X3 mRNA in dorsal root ganglion of burn rats; settings: n=10
# Procedure: SD rats (their body weights were 200±20 g) were randomly divided into the group I (sham back burn), the group II (Puerarin, intraperitoneal injection), the group III (superficial second degree back burn), the group IV (superficial second degree back burn+puerarin), the group V (control) and the group VI (superficial second degree back burn+Indocin). The rats in the group IV (superficial second degree back burn+puerarin) were subjected to intraperitoneal injection of Puerarin (100 mg/kg) everyday for continuous three days 30 minutes before and after burn. The rats in the group VI (superficial second degree back burn+Indocin) were subjected to intraperitoneal injection of idomethine (4 mg/kg/d) everyday for continuous three days 30 minutes before burn and after burn. Results of in situ hybridization were subjected to analysis by using Hmias-2000 high-resolution color medical image analysis system for the detection of P2X3 receptor expression in dorsal root ganglion (DRG) in burn position of rats.
# P2X3 mRNA [3] = experiment: RT-PCR of P2X3 mRNA expression in dorsal root ganglion of burn rats; settings: n=3
# Procedure: SD rats (their body weights were between 200±20 g) were randomly divided into the group I (sham back burn), the group II (Puerarin, intraperitoneal injection), the group III (superficial second degree back burn), the group IV (superficial second degree back burn+puerarin), the group V (control) and the group VI (superficial second degree back burn+Indocin). The rats in the group IV (superficial second degree back burn+puerarin) were subjected to intraperitoneal injection of puerarin (100 mg/kg) 30 minutes before burn and after burn everyday for continuous three days. The rats in the group VI (superficial second degree back burn+Indocin) were subjected to intraperitoneal injection of idomethine (4 mg/kg/d) 30 minutes before burn and after burn everyday for continuous three days. Primer design: β-actin was selected as the internal reference and the sequences for the primers were as below: Gel image system was used to record the scanned values for spot density (average optical density) of target electrophoresis bands, and the ratio between P2X3 band and corresponding β-actin band was used as the relative amount of P2X3 mRNA expression.
# [4] = superficial second degree back burn + drug (puerarin 100 mg/kg i.p., idomethine 4 mg/kg/d i.p., three days), burn 1.23±0.06, control 0.98±0.02
# [5] = CCI rats + drug, 14 days after operation, CCI 1.33±0.02, control 0.82±0.02
# [6] = superficial second degree back burn + drug (puerarin 100 mg/kg i.p., idomethine 4 mg/kg/d i.p., three days), burn 1.15±0.04, control 0.99±0.02
# [7] = superficial second degree back burn + drug (puerarin 100 mg/kg i.p., idomethine 4 mg/kg/d i.p., three days), burn 1.04±0.03, control 0.91±0.03
Compound,mechanical withdrawal threshold (MWT) in comparison to group III (burn) [1],mechanical withdrawal threshold (MWT) after 72 hours or 96 hours [1],protein expression level of P2X3 (after normalization with corresponding β-actin) (P2X3 protein; [4]),"average optical density of P2X3 positive neurons (P2X3 receptor mRNA, in situ hybridization) (P2X3 receptor mRNA; [5])","average optical density (P2X3 mRNA, in situ hybridization, DRG) (P2X3 mRNA [2]; [6])","relative expression amount of P2X3 mRNA (after normalization with corresponding β-actin), RT-PCR (P2X3 mRNA [3]; [7])","mechanical withdrawal threshold, comparison among sham, puerarin alone and control ([1]; puerarin alone i.p., no burn, p>0.05)","protein expression level of P2X3 (after normalization with corresponding β-actin) (P2X3 protein; puerarin alone i.p., no burn)","average optical density of P2X3 positive neurons (P2X3 receptor mRNA, in situ hybridization) (P2X3 receptor mRNA; puerarin alone, no CCI, 14 days)","average optical density (P2X3 mRNA, in situ hybridization, DRG) (P2X3 mRNA [2]; puerarin alone i.p., no burn)","relative expression amount of P2X3 mRNA (after normalization with corresponding β-actin), RT-PCR (P2X3 mRNA [3]; puerarin alone i.p., no burn)"
"COc1ccc2c(c1)c(CC(=O)O)c(C)n2C(=O)c1ccc(Cl)cc1 [Indocin, Indometacin]",significantly decreased,almost recovered to normal level,1.14±0.03,1.14±0.01,1.06±0.05,0.97±0.02,–,–,–,–,–
O=c1c(-c2ccc(O)cc2)coc2c([C@@H]3O[C@H](CO)[C@@H](O)[C@H](O)[C@H]3O)c(O)ccc12 [puerarin],significantly decreased,almost recovered to normal level,0.93±0.02,0.98±0.05,1.01±0.03,0.90±0.02,no significant difference,0.97±0.02,0.82±0.03,0.97±0.01,0.89±0.02
